Measured values taken from BindingDB's records for doi:10.1016/j.bioorg.2016.07.011 (Universiti Teknologi Mara (Uitm), 2016).
pIC50: −log10 of the molar value.

Each compound was assayed against Carbonic anhydrase 2 (Bos taurus, UniProt P00921) (assay: Carbonic Anhydrase (bCAII) Inhibition Assay). Settings: pH 7.2.
Method: This was assay performed using buffer containing Tris and HEPES at the pH of 7.2-7.9 and a total concentration of 20 mM. 96-well plates were filled with 140 µL of Tris-HEPES solution, 20 µL of bovine erythrocyte carbonic anhydrase II solution (0.1-0.2 mg/2000 mL), and 20 µL of 0.7 mM para-nitrophenyl acetate (diluted in ethanol). Test compounds were incubated at 25-28 °C for 15 min prior to addition of para-nitrophenyl acetate, which starts the reaction. The reaction was allowed to taking place for 30 min at 25-28 °C. All compounds tested in triplicate at different concentration. The amount of product that forms during thereaction monitored at 400 nm after 30 min using SPECTRA-max 340 spectrophotometer, Molecular Devices (USA).

Carbonic anhydrase 2, sequence (P00921 whole entry): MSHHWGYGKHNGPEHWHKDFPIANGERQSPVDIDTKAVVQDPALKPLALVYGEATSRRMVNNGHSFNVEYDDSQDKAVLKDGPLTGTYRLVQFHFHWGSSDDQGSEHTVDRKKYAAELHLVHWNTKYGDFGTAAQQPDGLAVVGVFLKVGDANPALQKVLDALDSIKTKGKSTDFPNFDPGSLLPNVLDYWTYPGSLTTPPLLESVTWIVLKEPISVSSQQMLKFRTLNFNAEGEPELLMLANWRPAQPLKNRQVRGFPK

Structure (SMILES) | pIC50
O=S(=O)(Nc1ccc(C(c2c[nH]c3ccccc23)c2c[nH]c3ccccc23)cc1)c1cc(Cl)cc(Cl)c1O [3,5-Dichloro-N-(4-(di(1H-indol-3-yl)methyl)phenyl)-2-hydroxybenzenesulfonamide (3k)] | 4.24
O=S(=O)(Nc1ccc(C(c2c[nH]c3ccc(Cl)cc23)c2c[nH]c3ccc(Cl)cc23)cc1)c1ccc(Cl)cc1 [N-(4-(bis(5-chloro-1H-indol-3-yl)methyl)phenyl)-4-chlorobenzenesulfonamide (5l)] | 4.34
COc1ccc(Cl)cc1S(=O)(=O)Nc1ccc(C(c2c[nH]c3ccc(Cl)cc23)c2c[nH]c3ccc(Cl)cc23)cc1 [N-(4-(bis(5-chloro-1H-indol-3-yl)methyl)phenyl)-5-chloro-2-methoxybenzene sulfonamide (5e)] | 3.75
O=[N+]([O-])c1cc(S(=O)(=O)Nc2ccc(C(c3c[nH]c4ccc(Cl)cc34)c3c[nH]c4ccc(Cl)cc34)cc2)ccc1Cl [N-(4-(bis(5-chloro-1H-indol-3-yl)methyl)phenyl)-4-chloro-3-nitrobenzenesulfonamide (5h)] | 4.16
O=[N+]([O-])c1ccccc1S(=O)(=O)Nc1ccc(C(c2c[nH]c3ccc(Br)cc23)c2c[nH]c3ccc(Br)cc23)cc1 [N-(4-(bis(5-bromo-1H-indol-3-yl)methyl)phenyl)-2-nitrobenzenesulfonamide (4d)] | 4.19
O=[N+]([O-])c1cc(S(=O)(=O)Nc2ccc(C(c3c[nH]c4ccc(Br)cc34)c3c[nH]c4ccc(Br)cc34)cc2)ccc1Cl [N-(4-(bis(5-bromo-1H-indol-3-yl)methyl)phenyl)-4-chloro-3-nitrobenzenesulfonamide (4h)] | 4.08
O=S(=O)(Nc1ccc(C(c2c[nH]c3ccc(Br)cc23)c2c[nH]c3ccc(Br)cc23)cc1)c1ccc2ccccc2c1 [N-(4-(bis(5-bromo-1H-indol-3-yl)methyl)phenyl)naphthalene-2-sulfonamide (4c)] | 4.04
O=[N+]([O-])c1ccc(S(=O)(=O)Nc2ccc(C(c3c[nH]c4ccc(Br)cc34)c3c[nH]c4ccc(Br)cc34)cc2)cc1 [N-(4-(bis(5-bromo-1H-indol-3-yl)methyl)phenyl)-4-nitrobenzenesulfonamide (4b)] | 4.19

Continued, values first:

pIC50 | Structure (SMILES)
4.39 | O=S(=O)(Nc1ccc(C(c2c[nH]c3ccc(Br)cc23)c2c[nH]c3ccc(Br)cc23)cc1)c1cc(Cl)c(Cl)cc1Cl [N-(4-(bis(5-bromo-1H-indol-3-yl)methyl)phenyl)-2,4,5-trichlorobenzenesulfonamide (4f)]
4.81 | O=[N+]([O-])c1ccc(S(=O)(=O)Nc2ccc(C(c3c[nH]c4ccc(Cl)cc34)c3c[nH]c4ccc(Cl)cc34)cc2)c([N+](=O)[O-])c1 [N-(4-(bis(5-chloro-1H-indol-3-yl)methyl)phenyl)-2,4-dinitrobenzenesulfonamide (5g)]
4.54 | O=[N+]([O-])c1ccc(S(=O)(=O)Nc2ccc(C(c3c[nH]c4ccc(Br)cc34)c3c[nH]c4ccc(Br)cc34)cc2)c([N+](=O)[O-])c1 [N-(4-(bis(5-bromo-1H-indol-3-yl)methyl)phenyl)-2,4-dinitrobenzenesulfonamide (4g)]
4.73 | O=S(=O)(Nc1ccc(C(c2c[nH]c3ccc(Br)cc23)c2c[nH]c3ccc(Br)cc23)cc1)c1cc(Cl)cc(Cl)c1O [N-(4-(bis(5-bromo-1H-indol-3-yl)methyl)phenyl)-3,5-dichloro-2-hydroxybenzenesulfonamide (4k)]
4.35 | O=[N+]([O-])c1ccccc1S(=O)(=O)Nc1ccc(C(c2c[nH]c3ccc(Cl)cc23)c2c[nH]c3ccc(Cl)cc23)cc1 [N-(4-(bis(5-chloro-1H-indol-3-yl)methyl)phenyl)-2-nitrobenzenesulfonamide (5d)]
4.69 | O=S(=O)(Nc1ccc(C(c2c[nH]c3ccc(Cl)cc23)c2c[nH]c3ccc(Cl)cc23)cc1)c1cc(Cl)cc(Cl)c1O [N-(4-(bis(5-chloro-1H-indol-3-yl)methyl)phenyl)-3,5-dichloro-2-hydroxybenzenesulfonamide (5k)]
4.84 | Cc1ccc([N+](=O)[O-])cc1S(=O)(=O)Nc1ccc(C(c2c[nH]c3ccc(Cl)cc23)c2c[nH]c3ccc(Cl)cc23)cc1 [N-(4-(bis(5-chloro-1H-indol-3-yl)methyl)phenyl)-2-methyl-5-nitrobenzenesulfonamide (5i)]
4.79 | O=S(=O)(Nc1ccc(C(c2c[nH]c3ccc(Cl)cc23)c2c[nH]c3ccc(Cl)cc23)cc1)c1cc(Cl)c(Cl)cc1Cl [N-(4-(bis(5-chloro-1H-indol-3-yl)methyl)phenyl)-2,4,5-trichlorobenzenesulfonamide (5f)]
4.35 | Cc1ccc([N+](=O)[O-])cc1S(=O)(=O)Nc1ccc(C(c2c[nH]c3ccc(Br)cc23)c2c[nH]c3ccc(Br)cc23)cc1 [N-(4-(bis(5-bromo-1H-indol-3-yl)methyl)phenyl)-2-methyl-5-nitrobenzenesulfonamide (4i)]
4.44 | O=[N+]([O-])c1ccccc1S(=O)(=O)Nc1ccc(C(c2c[nH]c3ccccc23)c2c[nH]c3ccccc23)cc1 [N-(4-(di(1H-indol-3-yl)methyl)phenyl)-2-nitrobenzenesulfonamide (3d)]
